Results reported in US12358960B2, “Selective targeting of ubiquitin- and ubiquitin-like E1-activating enzymes by structurally-stabilized peptides” (Dana-Farber Cancer Institute, Inc., priority 2019, dated 2025).
Entries after “also recorded” stand apart in the source; their conditions may differ. Bridge positions count the residues as written; N and C are the ends. Square brackets hold non-standard residues; d marks the D form. Peptide text beside a SMILES is read from it. R8 = C=CCCCCCC[C@@](C)(N)C(=O)O; S5 = C=CCCC[C@](C)(N)C(=O)O; Nle = CCCC[C@H](N)C(=O)O

Tests used:
[1] = molecular target: T1, Human E1 activating enzyme UBA1 (Homo sapiens, UniProt P22314); assay: In vitro enzyme inhibition assay: E1-mediated ubiquitin thioester transfer to E2 (band shift, silver stain); type: biochemical; settings: for effect of nonionic detergent on inhibitory activity against UBA1: 0.01% Triton X-100 in assay buffer
T1 sequence (P22314 1-1058): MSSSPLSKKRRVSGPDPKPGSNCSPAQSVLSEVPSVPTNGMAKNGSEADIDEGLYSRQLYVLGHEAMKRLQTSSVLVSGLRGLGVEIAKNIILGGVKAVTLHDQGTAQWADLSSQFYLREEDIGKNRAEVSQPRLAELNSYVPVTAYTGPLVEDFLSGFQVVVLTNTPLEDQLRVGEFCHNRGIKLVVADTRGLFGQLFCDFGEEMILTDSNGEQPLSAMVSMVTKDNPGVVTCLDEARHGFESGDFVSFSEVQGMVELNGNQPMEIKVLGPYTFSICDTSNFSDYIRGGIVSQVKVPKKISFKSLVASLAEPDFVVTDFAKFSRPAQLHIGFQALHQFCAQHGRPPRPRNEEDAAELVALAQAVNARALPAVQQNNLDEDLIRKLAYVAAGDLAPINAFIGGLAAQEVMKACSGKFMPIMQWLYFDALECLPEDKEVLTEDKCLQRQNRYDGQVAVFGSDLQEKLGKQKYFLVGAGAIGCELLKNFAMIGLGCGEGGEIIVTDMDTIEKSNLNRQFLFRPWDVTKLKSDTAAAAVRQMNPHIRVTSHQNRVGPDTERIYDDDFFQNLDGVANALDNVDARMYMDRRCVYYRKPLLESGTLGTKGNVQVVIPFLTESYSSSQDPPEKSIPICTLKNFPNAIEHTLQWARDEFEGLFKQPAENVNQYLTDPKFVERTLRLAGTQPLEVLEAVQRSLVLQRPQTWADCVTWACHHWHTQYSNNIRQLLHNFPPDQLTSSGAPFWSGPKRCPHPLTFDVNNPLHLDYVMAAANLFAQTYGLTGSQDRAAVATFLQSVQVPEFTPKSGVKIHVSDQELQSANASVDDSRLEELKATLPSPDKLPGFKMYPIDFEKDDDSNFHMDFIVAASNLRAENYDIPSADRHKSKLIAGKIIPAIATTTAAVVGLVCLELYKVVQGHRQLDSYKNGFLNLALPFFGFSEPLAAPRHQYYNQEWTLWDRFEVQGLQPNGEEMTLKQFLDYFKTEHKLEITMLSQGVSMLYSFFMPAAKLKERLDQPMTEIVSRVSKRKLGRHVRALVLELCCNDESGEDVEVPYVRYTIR
Procedure: In vitro Enzyme Inhibition Assays: To assess an E2 hA peptide's inhibition of an E1 enzyme, an in vitro enzyme inhibition assay can be used, for example. The in vitro enzyme inhibition assay measures an E2 hA peptide's ability to inhibit conjugation of ubiquitin to E2 by E1. Briefly, recombinant E1 (e.g., UBA1), recombinant E2 (e.g., UBE2A), ubiquitin, and Mg-ATP are combined in the presence of an E2 hA peptide or vehicle control (e.g., 1% DMSO) for a period of time (e.g., 30 minutes) at room temperature in a buffer containing, e.g., 50 mM NaCl, 50 mM HEPES pH 7.5. Control reaction includes no E1. Reactions are quenched by addition of SDS-containing loading dye and samples are resolved on a gel (e.g., a 4-12% Bis-Tris protein gel) under nonreducing conditions. Proteins on the gel are visualized via, e.g., silver stain. Conjugation of ubiquitin to E2 by E1 is monitored by conversion of free E2 (˜17 kDa) to E2˜ubiquitin conjugate (˜26 kDa).
Control reaction included no E1 enzyme. Reactions were quenched by addition of SDS-containing loading dye and samples were resolved on a 4-12% Bis-Tris protein gel under nonreducing conditions. Proteins were visualized via silver stain. Conjugation of ubiquitin to E2 by E1 was monitored by conversion of free E2 (17 kDa) to E2˜ubiquitin conjugate (26 kDa).
The ability of the peptides to inhibit E1-mediated thioester transfer to E2 was evaluated. Human E1 activating enzyme UBA1 (10 nM), UbcH5b E2 enzyme (150 nM), ubiquitin (1 μM), and Mg-ATP (20 μM) were combined in the presence of stapled peptide at a range of concentrations or vehicle control (1% DMSO) for 45 minutes at room temperature in buffer containing 50 mM NaCl, 50 mM HEPES, 1 mM TCEP pH 7.5. Reactions were quenched by addition of SDS-containing loading dye and samples were resolved on a 4-12% Bis-Tris protein gel under nonreducing conditions. Proteins were visualized via silver stain. Conjugation of ubiquitin to E2 by E1 was monitored by conversion of free E2 (17 kDa) to E2˜ubiquitin conjugate (26 kDa). Inhibition percentage was calculated from densitometry of silver stain images.
Streptavidin-biotin pull-down assays: For recombinant protein pull-downs, 10 pmol recombinant human UBA1 was incubated with 5 nmol C-terminally biotinylated SAH-UBE2A or DMSO vehicle control in a total volume of 1 mL binding buffer (50 mM NaCl, 20 mM HEPES, pH 7.4, 5 mM DTT) for 1.5 hours at 4° C. 30 μL of pre-equilibrated streptavidin agarose beads were then added and incubated for an additional 1.5 hours at 4° C. The beads were pelleted by centrifugation and washed three times with NP-40 buffer (20 mM HEPES, pH 7.4, 50 mM NaCl, 5 mM DTT, 0.5% [v/v] NP-40) before eluting the protein sample from the beads by heating at 70° C. for 10 min in 3×SDS loading buffer. Samples were subjected to electrophoresis and silver staining (Pierce 24612). For pull-down from cellular lysates, 0.75 mg HeLa cell lysate was incubated with 5 nmol C-terminally biotinylated SAH-UBE2A or DMSO vehicle control in a total volume of 1 mL binding buffer (50 mM NaCl, 20 mM HEPES, pH 7.4, 5 mM DTT) containing protease-phosphatase inhibitor cocktail for 2 hours at 4° C. 30 μL of pre-equilibrated streptavidin agarose beads (ThermoFisher 20357) were then added and incubated for an additional 1.5 hours at 4° C. The beads were pelleted by centrifugation and washed three times with NP-40 buffer (20 mM HEPES, pH 7.4, 50 mM NaCl, 5 mM DTT, 0.5% [v/v] NP-40) before eluting the protein sample from the beads by heating at 70° C. for 10 min in 3×SDS loading buffer. Proteins were separated by SDS-PAGE gel electrophoresis and detected by western blot against UBE1 (Abcam ab34711). In vitro Enzyme Inhibition Assays: Recombinant human E1 activating enzyme UBA1 (10 nM), E2 enzyme (150 nM), ubiquitin (1 μM), and Mg-ATP (20 μM) are combined in the presence of peptide or vehicle control (1% DMSO) for 45 minutes at room temperature in buffer containing 50 mM NaCl, 50 mM HEPES pH 7.5. Control reaction includes no E1 enzyme. […]

[2] = molecular target: proteinase K (Parengyodontium album, UniProt P06873); assay: in vitro; settings: proteinase K (isolated protease) in Tris HCl buffer, pH 7.4
Sequence of proteinase K (P06873 106-384): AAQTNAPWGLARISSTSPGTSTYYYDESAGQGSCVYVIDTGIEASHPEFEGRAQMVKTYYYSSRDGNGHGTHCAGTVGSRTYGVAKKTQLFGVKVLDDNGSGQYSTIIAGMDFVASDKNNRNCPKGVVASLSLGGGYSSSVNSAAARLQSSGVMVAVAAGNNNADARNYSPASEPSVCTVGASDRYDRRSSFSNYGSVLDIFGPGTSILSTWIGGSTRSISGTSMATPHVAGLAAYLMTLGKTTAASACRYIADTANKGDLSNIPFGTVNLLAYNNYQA
Procedure: Peptide Proteolysis Assay: In vitro proteolytic degradation was measured by LC/MS (Agilent 1200) using the following parameters: 20 μl injection, 0.6 mL flow rate, 20-min run time consisting of a gradient of water (0.1% formic acid) to 20%-80% acetonitrile (0.75% formic acid) over 15-min, 4-min wash to revert to starting gradient conditions, and 0.5-min post-time. The MSD set to scan mode with one channel at (M+2H)/2, ±1 mass units, one channel at (M+3H)/3, ±1 mass units, and the other at (M+4H)/4, ±1 mass units. Integration of each MSD signal yielded areas under the curve of >108 counts. Reaction samples were composed of 5 μl peptide in DMSO (1 mM stock) and 195 μl buffer consisting of 50 mM Tris HCl, pH 7.4. Upon injection of the zero time sample, 6 μl of 20 ng/μL proteinase K (New England Biolabs) was added, and the amount of intact peptide quantitated by serial injection over time. A plot of MSD area versus time yielded an exponential decay curve, and half-lives were determined by nonlinear regression analysis using Prism software (GraphPad).

**Q.** `CCCC[C@H](NC(C)=O)C(=O)N[C@@H](CO)C(=O)N[C@H](C(=O)N1CCC[C@H]1C(=O)N[C@]1(C)CCCCCCC=CCCC[C@@](C)(C(=O)N[C@@H](Cc2ccccc2)C(=O)N[C@@H](CCCCN)C(=O)N[C@@H](CCCNC(=N)N)C(=O)N[C@@H](CC(C)C)C(=O)N[C@@H](CCC(N)=O)C(N)=O)NC(=O)[C@H](CCCNC(=N)N)NC(=O)[C@H](CCCC)NC(=O)[C@H](CC(C)C)NC(=O)[C@H](CCCNC(=N)N)NC(=O)[C@H](CCCNC(=N)N)NC(=O)[C@H](CCCNC(=N)N)NC1=O)[C@@H](C)O` [SAH-UBE2A-11, BSTPX1RRRLBRX2FKRLQ] (Ac-[Nle]STP[R8]RRRL[Nle]R[S5]FKRLQ-NH2; staple 5-12) was tested. Which “effect of nonionic detergent on inhibitory activity against UBA1” value [1] did it give?
**A.** The value was “not affected at all by the presence of non-ionic detergent”.

**Q.** And the “effect of nonionic detergent on inhibitory activity against UBA1” value ([1]; listed as SAH-UBE2A)?
**A.** Its value is “no effect on the inhibitory activity of SAH-UBE2A”.

**Q.** What about the “inhibition of E1-mediated thioester transfer to a variety of human E2 enzymes” value ([1]; panel of human E2 enzymes (UBE2A, UBE2B, UBE2C, UBE2D1-4 etc.)) of the same compound?
**A.** The value was “inhibited E1-mediated thioester transfer to all human E2 enzymes tested; also recorded: inhibits E1 thioester transfer activity”.

**Q.** And the “inhibition of E1-mediated thioester transfer to E2, dose response” value ([1]; range of peptide concentrations, UbcH5b E2 enzyme, 45 minutes)?
**A.** The value was “inhibited E1-mediated thioester transfer to E2 in a dose-dependent manner; also recorded: most potent activity; also recorded: dose-dependently inhibit E1-mediated thioester transfer to E2”.

**Q.** And the half-life at 25 µM [2]?
**A.** Its half-life at 25 µM is over 6 h.
